Results taken from ChEMBL document CHEMBL5346971, “Discovery of the First Irreversible HDAC6 Isoform Selective Inhibitor with Potent Anti-Multiple Myeloma Activity” (J Med Chem, 2023).
pIC50: −log10 of the molar value. Active and inactive are the calls of the source. The rule behind the calls is not given here.

Legend:
[1] = molecular target: T1, Class 1 histone deacetylase (Homo sapiens) (UniProt Q13547+O15379+Q92769+Q9BY41); assay: Irreversible inhibition of class 1 HDAC in human A549 cells assessed as acetyl histone H3 level at 0.4 uM incubated for 5 hrs followed by drug wash-out and measured immediately after drug wash-out by western blot analysis relative to control; type: cell-based
[2] = molecular target: T2, Protein deacetylase HDAC6 (Homo sapiens) (UniProt Q9UBN7); assay: Irreversible inhibition of HDAC6 in human A549 cells assessed as acetyl alpha-tubulin level at 0.4 uM incubated for 5 hrs followed by drug wash-out for 24 hrs by western blot analysis relative to control; type: cell-based
T2 sequence (whole entry): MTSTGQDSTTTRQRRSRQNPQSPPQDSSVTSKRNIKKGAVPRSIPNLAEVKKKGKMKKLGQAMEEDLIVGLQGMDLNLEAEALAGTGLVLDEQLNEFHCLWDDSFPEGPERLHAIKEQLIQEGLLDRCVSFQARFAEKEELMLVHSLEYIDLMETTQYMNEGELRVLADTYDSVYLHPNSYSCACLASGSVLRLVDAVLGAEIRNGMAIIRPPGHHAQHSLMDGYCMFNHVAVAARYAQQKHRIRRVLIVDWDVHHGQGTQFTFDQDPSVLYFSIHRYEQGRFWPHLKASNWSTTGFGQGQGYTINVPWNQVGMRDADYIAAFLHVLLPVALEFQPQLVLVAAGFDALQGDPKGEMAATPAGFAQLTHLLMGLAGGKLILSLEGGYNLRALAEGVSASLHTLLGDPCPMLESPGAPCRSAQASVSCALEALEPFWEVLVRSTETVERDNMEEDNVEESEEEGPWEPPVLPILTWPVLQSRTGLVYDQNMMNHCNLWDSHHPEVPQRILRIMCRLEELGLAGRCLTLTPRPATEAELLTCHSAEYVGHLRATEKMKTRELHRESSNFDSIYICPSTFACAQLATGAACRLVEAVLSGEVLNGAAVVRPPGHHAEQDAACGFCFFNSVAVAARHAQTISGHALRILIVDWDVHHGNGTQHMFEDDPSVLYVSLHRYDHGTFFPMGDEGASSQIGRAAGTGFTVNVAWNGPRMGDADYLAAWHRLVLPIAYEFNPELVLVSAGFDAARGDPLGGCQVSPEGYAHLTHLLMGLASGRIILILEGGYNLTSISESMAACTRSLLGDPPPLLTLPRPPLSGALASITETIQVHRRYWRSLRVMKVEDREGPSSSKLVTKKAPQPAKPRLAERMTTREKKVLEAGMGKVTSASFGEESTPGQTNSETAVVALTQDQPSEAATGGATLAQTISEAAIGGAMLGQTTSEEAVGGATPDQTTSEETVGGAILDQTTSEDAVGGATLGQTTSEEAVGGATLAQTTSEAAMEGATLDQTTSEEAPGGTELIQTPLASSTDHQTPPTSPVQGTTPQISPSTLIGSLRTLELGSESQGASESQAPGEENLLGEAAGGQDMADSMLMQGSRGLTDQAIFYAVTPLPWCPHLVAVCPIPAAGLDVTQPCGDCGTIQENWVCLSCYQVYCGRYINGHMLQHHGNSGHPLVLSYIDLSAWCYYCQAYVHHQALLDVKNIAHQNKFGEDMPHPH

[3] = molecular target: T1, Class 1 histone deacetylase (Homo sapiens); assay: Irreversible inhibition of class 1 HDAC in human A549 cells assessed as acetyl histone H3 level at 0.4 uM incubated for 5 hrs followed by drug wash-out for 24 hrs by western blot analysis relative to control; type: cell-based
[4] = molecular target: T1, Class 1 histone deacetylase (Homo sapiens); assay: Irreversible inhibition of class 1 HDAC in human A549 cells assessed as acetyl histone H4 level at 0.4 uM incubated for 5 hrs followed by drug wash-out and measured immediately after drug wash-out by western blot analysis relative to control; type: cell-based
RPMI-8226 [5] = assay: Induction of apoptosis in human RPMI-8226 cells assessed as proportion of late apoptotic cells at 0.5 uM incubated for 24 hrs by AnnexinV-FITC/PI staining based flow cytometry (reference value: 4.18%); type: functional, cell-based
[6] = Half-life in mouse liver microsomes in presence of NADPH by LC-MS/MS analysis; type: ADME, Microsome
[7] = molecular target: T1, Class 1 histone deacetylase (Homo sapiens); assay: Irreversible inhibition of class 1 HDAC in human A549 cells assessed as acetyl histone H4 level at 0.4 uM incubated for 5 hrs followed by drug wash-out for 24 hrs by western blot analysis relative to control; type: cell-based
RPMI-8226 [8] = assay: Induction of apoptosis in human RPMI-8226 cells assessed as proportion of necrotic cells at 0.5 uM incubated for 24 hrs by AnnexinV-FITC/PI staining based flow cytometry (reference value: 0.49%); type: functional, cell-based
U-266 = assay: Antiproliferative activity against human U-266 cells assessed as inhibition of cell proliferation incubated for 48 hrs by CCK8 assay; type: functional, cell-based; details: U-266, 48 h
RPMI-8226 [9] = assay: Antitumor activity against human RPMI-8226 cells xenografted in NCG mouse assessed as tumor growth inhibition at 10 ug administered intratumorally every 2 days by vernier caliper analysis; type: functional; details: dose 10 µg; route it(Intratumoral)
[10] = Half-life in human liver microsomes in presence of NADPH by LC-MS/MS analysis; type: ADME, Microsome
RPMI-8226 [11] = assay: Induction of cell cycle arrest in human RPMI-8226 cells assessed as proportion of cells at S phase at 0.1 uM incubated for 24 hrs by PI staining based flow cytometry (reference value: 46.7%); type: functional

T1 sequence (O15379 whole entry, looked up): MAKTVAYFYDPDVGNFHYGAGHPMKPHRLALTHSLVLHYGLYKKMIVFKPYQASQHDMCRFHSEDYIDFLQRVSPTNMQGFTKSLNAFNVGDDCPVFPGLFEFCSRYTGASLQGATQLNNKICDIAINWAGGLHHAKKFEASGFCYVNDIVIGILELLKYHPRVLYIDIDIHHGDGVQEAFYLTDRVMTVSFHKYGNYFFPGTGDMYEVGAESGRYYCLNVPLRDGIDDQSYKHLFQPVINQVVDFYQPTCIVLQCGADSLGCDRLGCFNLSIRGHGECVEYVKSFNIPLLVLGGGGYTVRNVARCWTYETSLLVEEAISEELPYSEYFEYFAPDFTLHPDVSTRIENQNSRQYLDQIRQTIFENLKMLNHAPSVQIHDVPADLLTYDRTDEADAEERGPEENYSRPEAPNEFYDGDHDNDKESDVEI
T1 sequence (Q13547 whole entry, looked up): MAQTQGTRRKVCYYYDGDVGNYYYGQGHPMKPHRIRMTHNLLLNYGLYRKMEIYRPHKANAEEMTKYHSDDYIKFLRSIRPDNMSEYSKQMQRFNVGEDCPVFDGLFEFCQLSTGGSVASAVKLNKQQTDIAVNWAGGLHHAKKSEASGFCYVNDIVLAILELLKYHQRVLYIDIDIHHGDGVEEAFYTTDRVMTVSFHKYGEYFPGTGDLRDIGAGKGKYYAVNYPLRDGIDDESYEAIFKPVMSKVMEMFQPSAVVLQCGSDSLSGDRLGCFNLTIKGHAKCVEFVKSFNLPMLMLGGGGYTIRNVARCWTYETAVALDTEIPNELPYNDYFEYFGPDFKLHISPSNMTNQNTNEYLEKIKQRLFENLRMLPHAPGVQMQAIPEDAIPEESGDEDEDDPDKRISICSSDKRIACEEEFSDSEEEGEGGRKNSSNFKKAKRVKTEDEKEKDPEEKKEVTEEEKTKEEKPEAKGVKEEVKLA
T1 sequence (Q92769 whole entry, looked up): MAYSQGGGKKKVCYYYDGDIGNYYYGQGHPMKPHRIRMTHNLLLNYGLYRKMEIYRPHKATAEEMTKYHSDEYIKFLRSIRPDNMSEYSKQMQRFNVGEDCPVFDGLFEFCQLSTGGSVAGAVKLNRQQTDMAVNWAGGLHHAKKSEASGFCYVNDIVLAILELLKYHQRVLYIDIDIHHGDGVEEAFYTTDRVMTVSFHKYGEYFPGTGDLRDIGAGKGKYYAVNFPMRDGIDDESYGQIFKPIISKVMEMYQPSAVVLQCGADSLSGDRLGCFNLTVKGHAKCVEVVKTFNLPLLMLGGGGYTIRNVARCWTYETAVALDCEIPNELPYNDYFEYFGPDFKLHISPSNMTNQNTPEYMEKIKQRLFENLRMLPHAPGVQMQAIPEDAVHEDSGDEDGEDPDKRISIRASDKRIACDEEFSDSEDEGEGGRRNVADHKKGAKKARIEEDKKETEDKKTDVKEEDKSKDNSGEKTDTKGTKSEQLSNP
T1 sequence (Q9BY41 whole entry, looked up): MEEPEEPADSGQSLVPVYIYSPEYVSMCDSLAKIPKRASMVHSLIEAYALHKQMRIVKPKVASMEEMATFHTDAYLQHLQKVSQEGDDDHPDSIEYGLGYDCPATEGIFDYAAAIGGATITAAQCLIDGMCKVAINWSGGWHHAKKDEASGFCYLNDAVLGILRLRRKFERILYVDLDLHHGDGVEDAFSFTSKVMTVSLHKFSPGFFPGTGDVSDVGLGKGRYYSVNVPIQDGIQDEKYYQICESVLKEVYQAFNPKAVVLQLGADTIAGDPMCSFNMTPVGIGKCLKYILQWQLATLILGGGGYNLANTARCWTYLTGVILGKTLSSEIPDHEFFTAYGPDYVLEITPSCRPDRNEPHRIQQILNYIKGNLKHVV

fold change (FC) [1]: 1
fold change (FC) [2]: 4.3
fold change (FC) [3]: 1.2
fold change (FC) [4]: 0.7
half-life [6]: 1.8 min
fold change (FC) [7]: 0.6
half-life [10]: 5.4 min
SMILES: O=C(NO)c1ccc(COc2no[n+]([O-])c2S(=O)(=O)c2ccccc2)cc1
Activity (RPMI-8226 [5]): Active
Activity (RPMI-8226 [8]): Active
pIC50 (U-266): 6.15
TGI (RPMI-8226 [9]): 48%
Activity (RPMI-8226 [11]): 49.8%
